Results as given in a melting point compilation (Tetko et al.).

Compound	melting point
CCOC(=O)c1nc2c(s1)NCCCC2	144 to 146 °C
CCCCn1c(N)cc(=O)[nH]c1=O	238 to 240 °C
O=C(O)c1cc[nH]c(=O)c1	299 to 301 °C
Cn1c(S)nc2sccc2c1=O	317 to 319 °C
Cn1ccnc1C(O)CCc1ccccc1 (stereo not given)	101 to 103 °C
NC(=O)c1cc(-c2ccccc2)sc1N	200 to 210 °C
COc1ccc(C(C)(C#N)NC(=O)C(F)(F)F)cc1OC (stereo not given)	145 to 147 °C
O=[N+]([O-])c1ccc(Cl)c2cccnc12	130 to 138 °C
CC(C)(C)OC(=O)NC(C)(C(=O)O)C1CC1 (stereo not given)	140 to 142 °C
CCOC(=O)c1ccc(C(=O)O)nc1C	88 to 90 °C
COc1cc(F)c([N+](=O)[O-])cc1F	78 to 80 °C
O=C(O)c1sccc1C1CC1	169 to 171 °C
Cc1cc(Cl)c2cc(Br)cc(C)c2n1	134 to 136 °C
CC(C)c1cc(C(C)C)c([N+](=O)[O-])cc1[N+](=O)[O-]	77 to 79 °C
CCOc1ccc(S(=O)(=O)N2CCNCC2)cc1OCC	132 to 134 °C
Cc1ccc(C(=O)N=[N+]=[N-])o1	33 to 35 °C
O=c1cc(CS)nc2ccccn12	119 to 121 °C
CNCCNS(=O)(=O)c1ccc(C)cc1	84 to 86 °C
O=C(CCl)c1ccc(N2CCOC2=O)cc1	167 to 169 °C
O=[N+]([O-])c1cncc(Br)c1	99 to 101 °C
c1ccc(NCc2cccs2)nc1	76 to 78 °C
Cc1cc(C=O)c(C)n1-c1cccc(C(F)(F)F)c1	103 to 105 °C
NC(=NO)c1cccc(CN2CCOCC2)c1	155 to 157 °C
O=C(Nc1sc2ccccc2c1Cl)OCC(F)(F)F	95 to 97 °C

Compound	melting point
O=S(=O)(Cl)c1ccc2c(c1)S(=O)(=O)NC=N2	247 to 249 °C
Cc1ccc(-n2nc(C(=O)O)c3c2CCCC3)cc1F	208 to 210 °C
Cc1cc(Cl)ncc1O	168 to 170 °C
NC(=O)c1ccc(C(=O)O)s1	317 to 319 °C
O=[N+]([O-])c1ccc(S(=O)(=O)Cl)cc1Br	59 to 61 °C
COc1ccc(Cc2nnc(S)o2)cc1OC	202 to 204 °C
NC(=S)Nc1cccc2ncccc12	223 to 225 °C
CN(C)Cc1cccc(N)c1	40 to 42 °C
Cc1n[nH]c(C)c1NC(=O)CCl	160 to 162 °C
O=C(O)c1ccc(NC2CC2)nc1	178 to 180 °C
CC(C)C(Br)C(=O)N1CCc2ccccc21 (stereo not given)	111 to 113 °C
COC(=O)c1ccc(F)c(C)c1N	35 to 37 °C
O=Cc1c(Cl)nc(Cl)n1-c1ccccc1	133 to 135 °C
Oc1ccccc1-c1ccn[nH]1	95 to 97 °C
Cc1ccc2c(c1)OC(C)C(=O)N2 (stereo not given)	154 to 156 °C
CC(=CC(=O)O)c1cccc(Cl)c1	156 to 158 °C
CC(Nc1ccc(Cl)nn1)c1ccccc1 (stereo not given)	159 to 161 °C
CC(Oc1ccc(Cl)c(Cl)c1)C(=O)O (stereo not given)	125 to 127 °C
COc1ccc(C(C)=O)cc1Cn1cccn1	80 to 82 °C
N#CCc1ccc(OCc2ccccn2)cc1	76 to 78 °C
O=C(O)c1ccc(S(=O)(=O)Cl)c(F)c1	188 to 190 °C
CC(=O)c1ccc(F)cc1OC(F)F	55 to 57 °C
CC(=O)c1cnn(-c2ccc(F)cc2)c1C	87 to 89 °C
O=C(O)C1CCOc2ccccc21 (stereo not given)	87 to 89 °C

Compound	melting point
COC(=O)c1csc([N+](=O)[O-])c1	77 to 79 °C
COC(=O)c1c(C)n(C)c2ccc(O)cc12	223 to 225 °C
O=C(O)C1(Br)CCCC1	66 to 68 °C
COc1cc(C=O)cc(OC)c1OCc1ccccc1	62 to 64 °C
CCOC(=O)c1c(N)sc2c1CC(C)(C)NC2(C)C	95 to 97 °C
Cc1ccnc(S(N)(=O)=O)c1	163 to 165 °C
COc1cc(C2(C(=O)O)CCC2)ccc1C	125 to 127 °C
O=C(NCc1nnc2n1CCC2)OCC(F)(F)F	131 to 133 °C
NS(=O)(=O)c1ccc(SCC(=O)O)cc1	157 to 159 °C
CCCn1c(N)nc2ccccc21	114 to 116 °C
O=C(O)C1CCN(C(=O)CCOc2ccccc2)CC1	127 to 129 °C
N#CCCN1CCS1(=O)=O	52 to 54 °C
CCOC(=O)NC(=N)N	104 to 106 °C
N#CCN(C(=O)c1ccccc1)C1CC1	103 to 105 °C
COc1coc(CCl)cc1=O	116 to 118 °C
Cc1ccc(C(=O)C(=O)c2ccccc2)cc1C	63 to 65 °C
CC(Sc1nnnn1C1CC1)C(=O)O (stereo not given)	116 to 118 °C
Cc1ccc(-c2csc(=O)n2CC(=O)O)cc1	128 to 130 °C
NC(Cc1c[nH]c2cc(F)ccc12)C(=O)O (stereo not given)	283 to 285 °C
Nn1c(S)nnc1Cc1ccccc1F	158 to 161 °C
COC(=O)c1n[nH]c(N)n1	218 to 222 °C
CN(C)C(=O)Sc1cnn(-c2ccccc2F)c1	65 to 67 °C
CC(Cl)c1nc(-c2nnc[nH]2)no1 (stereo not given)	187 to 189 °C
CC(C(=O)O)C1CCOCC1 (stereo not given)	39 to 41 °C

Compound	melting point
CCn1ccnc(Cl)c1=O	52 to 54 °C
COc1ccc(NC(N)=S)cc1	208 to 210 °C
CC(C)CCC(C)NC(=O)C1CSCN1 (stereo not given)	77 to 79 °C
O=C(O)CONS(=O)(=O)c1ccc(F)cc1	168 to 170 °C
Sc1nnc(N2CCOCC2)n1CC1CCCO1 (stereo not given)	186 to 188 °C
Nc1noc(-c2ccccc2)n1	164 to 166 °C
O=C(CNCc1ccc(Cl)cc1)Nc1ccccc1F	90 to 92 °C
COc1cc2c(c(OC)c1OC)CCNC(=O)C2	176 to 178 °C
N#Cc1ccccc1Oc1cnccn1	73 to 75 °C
CCOC(=O)Nc1ccc2c(CCl)cc(=O)oc2c1	247 to 249 °C
O=C(O)C(c1ccccc1)n1cccn1 (stereo not given)	141 to 143 °C
N#CC1(N2CCN(Cc3ccccc3)CC2)CCOCC1	105 to 107 °C
Cc1ccc(-c2csc(NC(=O)CCl)n2)cc1C	179 to 181 °C
O=C(O)c1cc([N+](=O)[O-])ccc1SCCO	163 to 165 °C
CN(C(=O)c1cccc(C(=O)O)c1)c1ccccc1	170 to 172 °C
Sc1nnc(Nc2ccccc2Cl)s1	174 to 176 °C
CC1N=C(S)N(Cc2ccccc2)C1=O (stereo not given)	< 17 °C
CC(=O)N(c1ccc(C(F)(F)F)cc1)c1nc(CCl)cs1	115 to 117 °C
Cc1sc(=O)n(CCC(=O)O)c1C	150 to 152 °C
CN(C)C(=O)c1ccc(N)cc1	151 to 153 °C
CC(=O)CC(=O)Nc1cccc(C)c1	57 to 59 °C
Nc1ccccc1C(=O)NCCCN1CCOCC1	194 to 198 °C

Other lines, results leading:

melting point	Compound
192 to 194 °C	Cc1nn(-c2ccccc2)cc1C(=O)O
231 to 233 °C	Cc1ccc(-c2ccc(=O)[nH]n2)s1
58 to 60 °C	O=S1(=O)CCCN1Cc1ccc(Br)cc1
74 to 76 °C	CC(=O)c1nnn(-c2cccc(Br)c2)c1C
205 to 207 °C	CC1(C)SC[C@H](C(=O)O)NC1=O
232 to 234 °C	O=C(O)c1csc(S(=O)(=O)N2CCc3ccccc3C2)c1
90 to 92 °C	NNC(=O)CO
157 to 159 °C	CNc1ccncc1[N+](=O)[O-]
108 to 110 °C	O=c1nc(Cl)sc2ccccc12
106 to 108 °C	CC(=O)c1ccc(OCc2nccn2C)cc1
32 to 34 °C	Cn1cnnc1CN
105 to 107 °C	CC(C)NC(=O)c1cccc(CN)c1
141 to 145 °C	CC(Cl)C(=O)Nc1ccc(OCc2ccccc2)cc1 (stereo not given)
131 to 133 °C	Cc1cccc2c(Cl)ncnc12
129 to 131 °C	NCC(O)COc1ccc(I)cc1 (stereo not given)
57 to 59 °C	CC(C)Oc1ncccc1O
152 to 154 °C	Nc1ccc2cccc(Br)c2n1
134 to 136 °C	Nc1ccc(C(=O)Nc2ccccc2)cc1
80 to 82 °C	COC(=O)C(O)c1cccc(Cl)c1 (stereo not given)
235 to 237 °C	NC(=O)c1cc(-c2csc(N)n2)c[nH]1
99 to 101 °C	Cc1csc(Sc2ccc(N)cc2)n1
55 to 58 °C	O=C(O)c1cccc(S(=O)(=O)N2CCc3ccccc3C2)c1
151 to 153 °C	COCCn1c(N)c(NCc2ccccc2)c(=O)[nH]c1=O
56 to 58 °C	Cc1ccc(-c2noc(CC#N)n2)cc1
49 to 51 °C	CCOc1ccc(C(C)=O)cc1OCC
197 to 199 °C	O=C(O)C1CCCN1C1CCNCC1 (stereo not given)

melting point	Compound
185 to 187 °C	Cc1cc(C)nc(-n2nc(C)cc2NC(=O)CCl)n1
165 to 167 °C	O=Cc1cc(C(=O)O)co1
110 to 112 °C	CC1CN(S(=O)(=O)c2ccc(NC(=O)CCl)cc2)CC(C)O1 (stereo not given)
145 to 147 °C	O=C(O)C1CCN(c2ccc(F)cc2)C1=O (stereo not given)
58 to 60 °C	O=C(Nc1cccs1)OCC(F)(F)F
166 to 168 °C	O=[N+]([O-])c1ccc(-c2ncon2)cc1
149 to 151 °C	CC(O)c1ccc2c(c1)Nc1ccccc1S2 (stereo not given)
168 to 170 °C	C/C(=N\O)c1ccc(-c2cccc(Br)c2)s1
80 to 82 °C	Cc1ccc(S(=O)(=O)OC2CCS(=O)(=O)C2)cc1 (stereo not given)
119 to 121 °C	CNS(=O)(=O)CC(=O)O
112 to 114 °C	C1CCC(NC2=NCCCS2)CC1
99 to 101 °C	CC(C)n1ncc(C(=O)O)c1C1CC1
153 to 155 °C	O=S1(=O)C=C(Nc2ccccc2)CC1
218 to 225 °C	Sc1nnc(-c2c[nH]c3ccccc23)o1
120 to 122 °C	Nc1cc(-c2ccco2)nn1-c1ccc(F)cc1F
206 to 208 °C	Cc1ccc(C)c2[nH]c(C(=O)O)cc12
136 to 138 °C	O=C(O)CNS(=O)(=O)c1c(F)cc(F)cc1Br
74 to 76 °C	CCCCNc1nnc(C)c2ccccc12
46 to 48 °C	Cc1nn(C)cc1C=O
176 to 178 °C	Cc1ccc(S(N)(=O)=O)cc1N
142 to 144 °C	NC(=O)c1csc(Br)c1
99 to 101 °C	O=C(O)C1CCCN1c1ncc(C(F)(F)F)cc1Cl (stereo not given)
237 to 239 °C	CCc1ccc(-c2nn[nH]n2)cc1
332 to 334 °C	CC(C)n1c(=O)[nH]c2cc(C(=O)O)ccc2c1=O
260 to 262 °C	O=c1[nH]cnc2cc(F)ccc12
